Key:
[1] = biological target: T1, human DA transporters [(h)DAT] (Homo sapiens, UniProt Q01959); test: Inhibition of [3H]dopamine uptake into HEK293 cells stably expressing hDAT; assay type: cell-based; conditions: HEK293-hDAT; mean ± standard error of three independent experiments; read-out: monoamine uptake inhibition IC50 [3H]DA
T1 construct: expressed in transfected cells; host or cells: HEK-293
From the text: (§1) Cell Lines and Culture: Human embryonic kidney (HEK-293) cells stably expressing human DAT, NET or SERT were maintained as previously described in Eshleman, A. J.; Carmolli, M.; Cumbay, M.; Martens, C. R.; Neve, K. A.; Janowsky, A., J. Pharmacol. Exp. Ther. 1999, 289, (2), 877-885. Use was made of several human cell lines that naturally or heterologously express specific, functional, human nAChR subtypes. Cells of the TE671/RD line naturally expresses muscle-type nAChR (a1β1γδ- or α1*-nAChR), and SH-SY5Y neuroblastoma cells naturally expresses autonomic α3β4*-nAChRs (containing α3, β4, probably α5, and sometimes β2 subunits). Different clones of SH-EP1 epithelial cell lines have been engineered to heterologously express either α4β2-nAChR, which are thought to be the most abundant, high affinity nicotine-binding nAChR in mammalian brain, or α4β4-nAChR, another possible brain nAChR subtype (SH-EP1-hα4β2 or α4β4 cells, respectively). These cells were maintained as low passage number (1-26 from our frozen stocks) cultures to ensure stable expression of native or heterologously-expressed nAChR as previously described (see Lukas, R. J.; Fryer, J. D.; Eaton, J. B.; L., G. C., Some methods for studies of nicotinic acetylcholine receptor pharmacology, in Nicotinic receptors and the Nervous System, Levine, E. D., Ed. CRC Press: Boca Raton, 2002; pp 3-27, incorporated herein by reference in its entirety). Cells were passaged once weekly by splitting just-confluent cultures 1/300 (TE671/RD), 1/5 (SH-SY5Y), or 1/20 (transfected SH-EP1) in serum-supplemented medium to maintain log-phase growth.
(§2) See, for example, Damaj, M. I.; Carroll, F. I.; Eaton, J. B.; Navarro, H. A.; Blough, B. E.; Mirza, S.; Lukas, R. J.; Martin, B. R., Mol. Pharmacol. 2004, 66, (3), 675-682 and Eshleman, A. J.; Carmolli, M.; Cumbay, M.; Martens, C. R.; Neve, K. A.; Janowsky, A., J. Pharmacol. Exp. Ther. 1999, 289, (2), 877-885, both incorporated by reference herein in their entireties.

[2] = biological target: T2, 5HT transporters [(h)SERT] (Homo sapiens, UniProt P31645); test: Inhibition of [3H]serotonin uptake into HEK293 cells stably expressing hSERT; assay type: cell-based; conditions: HEK293-hSERT; mean ± standard error of three independent experiments; read-out: monoamine uptake inhibition IC50 [3H]5HT
T2 construct: expressed in transfected cells; host or cells: HEK-293
From the text: as §1, §2

[3] = system: Male Institute of Cancer Research (ICR) mice; test: Hot-plate test, blockade of nicotine-induced antinociception; assay type: in vivo; conditions: pretreatment 15 min before nicotine 2.5 mg/kg s.c., tested 5 min after nicotine
From the text: (§3) Animals: Male Institute of Cancer Research (ICR) mice (weighing 20-25 g) obtained from Harlan (Indianapolis, Ind.) were used throughout the study. Animals were housed in an Association for Assessment and Accreditation of Laboratory Animal Care-approved facility, were placed in groups of six, and had free access to food and water. Studies were approved by the Institutional Animal Care and Use Committee of Virginia Commonwealth University.
Hot-Plate Test: Mice were placed into a 10-cm wide glass cylinder on a hot plate (Thermojust Apparatus) maintained at 55° C. for assessment of pain responses mediated at supraspinal levels. To minimize tissue damage, a maximum exposure to the hot plate 40 s was imposed. Measures of control latencies (time until the animal jumped or licked its paws; typically 8-12 s) were done twice for stimuli applied at least 10 min apart for each mouse. Antinociceptive responses after test drug administrations were determined and calculated as the % MPE, where % MPE=[(test latency in s−control latency in s)/(40 s−control latency in s)×100]. Groups of 8 to 12 animals were used for each drug condition. […] The animals were then tested 5 min after administration of a subcutaneous dose of 2.5 mg/kg nicotine.

[4] = system: Male Institute of Cancer Research (ICR) mice; test: Body temperature, antagonism of nicotine-induced hypothermia; assay type: in vivo; conditions: pretreatment 15 min before nicotine 2.5 mg/kg s.c., tested 30 min after nicotine
Experimental: as §3
Body Temperature: Rectal temperature was measured by a thermistor probe (inserted 24 mm) and digital thermometer (YSI Inc., Yellow Springs, Ohio). Readings were taken just before and 30 min after subcutaneous injection of either saline or 2.5 mg/kg nicotine. The difference in rectal temperature before and after treatment was calculated for each mouse. The ambient temperature of the laboratory varied from 21 to 24° C. from day to day. […] The animals were then tested 30 min after administration of a subcutaneous dose of 2.5 mg/kg nicotine.

[5] = system: Male Institute of Cancer Research (ICR) mice; test: Tail-flick test, blockade of nicotine-induced antinociception; assay type: in vivo; conditions: mice, pretreatment 15 min before nicotine 2.5 mg/kg s.c., tested 5 min after nicotine
From the text: as §3
Tail-Flick Test: Antinociception for pain mediated at the spinal level was assessed by the tail-flick method of D'Amour, F. E.; Smith, D. L., J. Pharmacol. Exp. Ther. 1941, 72, 74-79, incorporated herein by reference in its entirety. In brief, mice were lightly restrained while a radiant heat source was shone onto the upper portion of the tail. To minimize tissue damage, a maximum latency of 10 s was imposed. Latency to remove the tail from the heat source was recorded for each animal. […] Antinociceptive response was calculated as the percentage of maximum possible effect (% MPE), where % MPE=[(test control)/(10 control)]×100.

T2 sequence (P31645 whole entry): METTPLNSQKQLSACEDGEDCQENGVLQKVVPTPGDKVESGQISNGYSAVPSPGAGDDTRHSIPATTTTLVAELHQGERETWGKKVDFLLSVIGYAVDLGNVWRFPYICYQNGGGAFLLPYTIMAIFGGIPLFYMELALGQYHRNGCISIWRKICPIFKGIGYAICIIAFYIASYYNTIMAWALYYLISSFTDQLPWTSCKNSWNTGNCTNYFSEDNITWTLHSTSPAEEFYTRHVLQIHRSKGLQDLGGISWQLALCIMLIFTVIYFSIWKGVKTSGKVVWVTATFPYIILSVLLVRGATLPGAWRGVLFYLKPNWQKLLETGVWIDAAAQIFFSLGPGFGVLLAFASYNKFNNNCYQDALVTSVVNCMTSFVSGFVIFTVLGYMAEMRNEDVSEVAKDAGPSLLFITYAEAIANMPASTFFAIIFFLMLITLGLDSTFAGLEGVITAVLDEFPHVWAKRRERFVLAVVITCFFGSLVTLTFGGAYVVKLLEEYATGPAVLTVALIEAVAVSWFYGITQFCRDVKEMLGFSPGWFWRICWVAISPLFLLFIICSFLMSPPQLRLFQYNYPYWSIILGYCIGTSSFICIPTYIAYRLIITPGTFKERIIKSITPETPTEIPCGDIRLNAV
T1 sequence (Q01959 whole entry): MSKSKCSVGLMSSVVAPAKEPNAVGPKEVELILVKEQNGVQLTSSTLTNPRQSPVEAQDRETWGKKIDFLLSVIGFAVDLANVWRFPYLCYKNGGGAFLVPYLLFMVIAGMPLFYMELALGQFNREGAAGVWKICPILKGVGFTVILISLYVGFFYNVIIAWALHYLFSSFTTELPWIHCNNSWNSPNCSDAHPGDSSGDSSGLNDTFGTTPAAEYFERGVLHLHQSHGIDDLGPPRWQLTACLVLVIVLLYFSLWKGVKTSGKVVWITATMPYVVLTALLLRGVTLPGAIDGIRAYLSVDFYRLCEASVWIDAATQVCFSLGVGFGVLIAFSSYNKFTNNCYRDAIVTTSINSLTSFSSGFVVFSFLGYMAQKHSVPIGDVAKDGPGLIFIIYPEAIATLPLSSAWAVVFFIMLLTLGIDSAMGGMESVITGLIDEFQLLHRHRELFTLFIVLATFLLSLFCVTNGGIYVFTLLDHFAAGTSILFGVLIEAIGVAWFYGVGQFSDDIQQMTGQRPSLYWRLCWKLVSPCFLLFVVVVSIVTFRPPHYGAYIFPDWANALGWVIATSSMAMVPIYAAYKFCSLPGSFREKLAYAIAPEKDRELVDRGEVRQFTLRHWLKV

Structure (SMILES) | IC50 [1] [µM] | IC50 [2] [µM] | AD50 Hot-plate [3] | AD50 Hypothermia [4] | AD50 Tail-flick [5] | ED50 ([5]; Mus musculus, 5 min, read-out: AD50 Tail-flick) [µg/kg]
CC1NC(C)(C)COC1(O)c1cc(Cl)cc(Cl)c1 (racemic) [Compound 4p, 2-(3,5-Dichlorophenyl)-3,5,5-trimethylmorpholin-2-ol] | 8.25 ± 0.72 | > 10 | IA (IA: AD50 > 15 mg/kg) | IA (IA: AD50 > 15 mg/kg) | IA (IA: AD50 > 15 mg/kg) | 
C[C@@H]1NC(C)(C)CO[C@@]1(O)c1ccc(F)c(F)c1 [Compound 4m, (2S,3S)-2-(3,4-Difluorophenyl)-3,5,5-trimethylmorpholin-2-ol] | 2.14 ± 0.18 | > 10 | IA (IA: AD50 > 15 mg/kg) | IA (IA: AD50 > 15 mg/kg) |  | 6

— US8906908B2, “Hydroxybupropion analogues for treating drug dependence” (priority 2010, dated 2014)
